Laboratory results reported in patent US8263610B2, “Substituted imidazolyl-5,6-dihydrobenzo[N]isoquinoline compounds” (ArQule, Inc., priority 2008, dated 2012).

How the values were obtained:
DLD-1 cells = assay: MTS assay, inhibition of cell growth; type: cell-based; settings: Homo sapiens, compound at 10 μM, 72 hours
Protocol: (§1) MDA-MB-231, DLD-1, Kato III NCI-H1299, PACA-2 cells, were maintained at 37° C., 5% CO2 in DMEM media supplemented with 10% fetal bovine serum, penicillin/streptomycin and fungizone (Invitrogen). Cells were seeded into 96-well tissue culture plates at 3000 per well and cultured at 37° C. for 18 hours. Test compounds were dissolved and diluted to 300× in DMSO then further diluted 1:40 in DMEM before addition to cells (1:7.5 dilution). Cells were incubated with test compounds for 72 hours followed by incubation with tetrazolium compound (3-(4,5-dimethylthiazol-2-yl)-5-(3-carboxymethoxyphenyl)-2-(4-sulfophenyl)-2H-tetrazolium, inner salt; MTS) and the electron coupling reagent, phenazine methosulfate (PMS) for 4 hours. […] The ability of compounds to inhibit cell growth in this assay is correlated with the reduction of dehydrogenase enzyme activity found in metabolically active cells. The measurement of the absorbance of the formazan was assessed using an ENVISION™ (Perkin Elmer) microplate reader at 492 nm.

Kato III cells = assay: MTS assay, inhibition of cell growth; type: cell-based; settings: Homo sapiens, compound at 10 μM, 72 hours
Protocol: as §1

MDA-MB-231 cells = assay: MTS assay, inhibition of cell growth; type: cell-based; settings: Homo sapiens, compound at 10 μM, 72 hours
Protocol: as §1

NCI-H1299 cells = assay: MTS assay, inhibition of cell growth; type: cell-based; settings: Homo sapiens, compound at 10 μM, 72 hours
Protocol: as §1

PACA-2 cells = assay: MTS assay, inhibition of cell growth; type: cell-based; settings: compound at 10 μM, 72 hours
Protocol: as §1

Row | melting point [°C] | SMILES | inhibition at 10 µM (DLD-1 cells) [%] | inhibition at 10 µM (Kato III cells) [%] | inhibition at 10 µM (MDA-MB-231 cells) [%] | inhibition at 10 µM (NCI-H1299 cells) [%] | inhibition at 10 µM (PACA-2 cells) [%]
1 | – | O=S(=O)(Cc1noc2ccccc12)NC1CCc2c(cnc3[nH]ncc23)C1 (centres unmarked) [1-(1,2-benzisoxazol-3-yl)-N-(6,7,8,9-tetrahydro-3H-pyrazolo[3,4-c]isoquinolin-7-yl)methanesulfonamide] | 50 to 74 | 75 to 100 | 25 to 49 | 25 to 49 | 75 to 100
2 | – | O=C(Nc1cccc2ccccc12)NC1CCc2c(cnc3[nH]ncc23)C1 (centres unmarked) [1-(1-naphthyl)-3-(6,7,8,9-tetrahydro-3H-pyrazolo[3,4-c]isoquinolin-7-yl)urea] | 75 to 100 | 75 to 100 | 50 to 74 | 25 to 49 | 25 to 49
3 | – | O=C(NCCc1ccccc1)NC1CCc2c(cnc3[nH]ncc23)C1 (centres unmarked) [1-(2-phenylethyl)-3-(6,7,8,9-tetrahydro-3H-pyrazolo[3,4-c]isoquinolin-7-yl)urea] | 75 to 100 | 75 to 100 | 75 to 100 | 75 to 100 | 75 to 100
4 | – | O=C(Nc1cccc(Cl)c1F)NC1CCc2c(cnc3[nH]ncc23)C1 (centres unmarked) [1-(3-chloro-2-fluorophenyl)-3-(6,7,8,9-tetrahydro-3H-pyrazolo[3,4-c]isoquinolin-7-yl)urea] | 75 to 100 | 75 to 100 | 75 to 100 | 75 to 100 | 75 to 100
5 | – | Cc1ccc(-c2n[nH]c3ncc4c(c23)CCN(C(=O)Nc2ccccc2)C4)o1 [1-(5-methylfuran-2-yl)-N-phenyl-3,6,8,9-tetrahydro-7H-pyrazolo[3,4-c][2,7]naphthyridine-7-carboxamide] | 75 to 100 | 75 to 100 | 75 to 100 | 75 to 100 | 75 to 100
6 | – | O=C(C(c1ccccc1)N1CCNCC1)N1CCc2c(cnc3[nH]nc(Br)c23)C1 (centres unmarked) [1-bromo-7-[phenyl(piperperazin-1-yl)acetyl]-6,7,8,9-tetrahydro-3H-pyrazolo[3,4-c][2,7]naphthyridine] | 75 to 100 | 75 to 100 | 75 to 100 | 75 to 100 | 75 to 100
7 | – | N[C@H](C(=O)N1CCc2c(cnc3[nH]ncc23)C1)c1ccccc1 [(1S)-2-oxo-1-phenyl-2-(3,6,8,9-tetrahydro-7H-pyrazolo[3,4-c][2,7]naphthyridin-7-yl)ethanamine] | < 24 | – | 50 to 74 | – | 50 to 74
8 | 221 to 223 | Cc1cncc(Oc2cccc(NC(=O)N3CCc4c(cnc5[nH]nc(Br)c45)C3)c2)n1 [Example 403, 1-bromo-N-{3-[(6-methylpyrazin-2-yl)oxy]phenyl}-3,6,8,9-tetrahydro-7H-pyrazolo[3,4-c][2,7]naphthyridine-7-carboxamide] | – | – | – | – | –
9 | > 152 | Cc1nc(-c2cccc(NC(=O)N3CCc4c(cnc5[nH]nc(Br)c45)C3)c2)no1 [Example 404, 1-bromo-N-[3-(5-methyl-1,2,4-oxadiazol-3-yl)phenyl]-3,6,8,9-tetrahydro-7H-pyrazolo[3,4-c][2,7]naphthyridine-7-carboxamide] | – | – | – | – | –
10 | > 140 | Cc1nc(-c2cccc(NC(=O)N3CCc4c(cnc5[nH]ncc45)C3)c2)no1 [Example 406, N-(3-(5-methyl-1,2,4-oxadiazol-3-yl)phenyl)-8,9-dihydro-3H-pyrazolo[3,4-c][2,7]naphthyridine-7(6H)-carboxamide] | – | – | – | – | –
11 | 150 to 170 | O=C(Nc1ccccc1)N1CCc2c(cnc3[nH]nc(-c4ccccc4)c23)C1 [Example 407, N,1-diphenyl-8,9-dihydro-3H-pyrazolo[3,4-c][2,7]naphthyridine-7(6H)-carboxamide] | – | – | – | – | –
12 | 175 to 178 | O=C(Nc1cccc(Cc2ccccc2)c1)N1CCc2c(cnc3[nH]ncc23)C1 [Example 408, N-(3-benzylphenyl)-8,9-dihydro-3H-pyrazolo[3,4-c][2,7]naphthyridine-7(6H)-carboxamide] | – | – | – | – | –
13 | 148 to 151 | COc1ccc(-c2ccccc2)cc1NC(=O)N1CCc2c(cnc3[nH]ncc23)C1 [Example 409, N-(4-methoxybiphenyl-3-yl)-8,9-dihydro-3H-pyrazolo[3,4-c][2,7]naphthyridine-7(6H)-carboxamide] | – | – | – | – | –
14 | 198 to 200 | O=C(c1ccccc1)N1CCc2c(cnc3[nH]ncc23)C1 [Example 427, (8,9-dihydro-3H-pyrazolo[3,4-c][2,7]naphthyridin-7(6H)-yl)(phenyl)methanone] | – | – | – | – | –
15 | > 300 | O=C(NC1CCc2c(cnc3[nH]ncc23)C1)c1ccccc1 (centres unmarked) [Example 430, N-(6,7,8,9-tetrahydro-3H-pyrazolo[3,4-c]isoquinolin-7-yl)benzamide] | – | – | – | – | –
16 | > 150 | O=C(c1ccccc1)N1CCc2cnc3[nH]ncc3c2-c2ccccc21 [Example 431, 8-(phenylcarbonyl)-3,6,7,8-tetrahydropyrazolo[4′,3′:5,6]pyrido[3,4-d][1]benzazepine] | – | – | – | – | –

Row | melting point [°C] | SMILES | inhibition at 10 µM (DLD-1 cells) [%] | inhibition at 10 µM (Kato III cells) [%] | inhibition at 10 µM (MDA-MB-231 cells) [%] | inhibition at 10 µM (NCI-H1299 cells) [%] | inhibition at 10 µM (PACA-2 cells) [%]
17 | 237 to 240 | O=C(O)C(c1ccccc1)N1CCc2c(cnc3[nH]ncc23)C1 (centres unmarked) [Example 433, 2-(8,9-dihydro-3H-pyrazolo[3,4-c][2,7]naphthyridin-7(6H)-yl)-2-phenylacetic acid] | – | – | – | – | –
18 | > 145 | COc1ccc(Cn2ncc3c4c(cnc32)CN(c2ncnc3[nH]nc(C(=O)c5ccccc5)c23)CC4)cc1 [Example 434, (4-(3-(4-methoxybenzyl)-8,9-dihydro-3H-pyrazolo[3,4-c][2,7]naphthyridin-7(6H)-yl)-1H-pyrazolo[3,4-d]pyrimidin-3-yl)(phenyl)methanone] | – | – | – | – | –
19 | 300 to 302 | O=C(c1ccccc1)c1c[nH]c2ncnc(N3CCc4c(cnc5[nH]nc(Br)c45)C3)c12 [Example 436] | – | – | – | – | –
20 | 255 to 256 | COc1ccc(Cn2ncc3c4c(cnc32)CN(C(=N)N)CC4)cc1 [Example 474, 3-(4-methoxybenzyl)-8,9-dihydro-3H-pyrazolo[3,4-c][2,7]naphthyridine-7(6H)-carboximidamide] | – | – | – | – | –
21 | 164 to 166 | O=C(Cc1ccccc1)N1CCc2c(cnc3[nH]ncc23)C1 [Example 476, 1-(8,9-dihydro-3H-pyrazolo[3,4-c][2,7]naphthyridin-7(6H)-yl)-2-phenylethanone] | – | – | – | – | –
22 | – | O=C(NC[C@@H]1CCCO1)c1cccc(NC(=O)N2CCc3c(cnc4[nH]ncc34)C2)c1 [N-(3-{[(2S)-tetrahydrofuran-2-ylmethyl]carbamoyl}phenyl)-3,6,8,9-tetrahydro-7H-pyrazolo[3,4-c][2,7]naphthyridine-7-carboxamide] | 75 to 100 | 75 to 100 | 75 to 100 | – | 75 to 100
23 | – | CC(=O)Nc1cccc(-c2n[nH]c3ncc4c(c23)CCNC4)c1 [N-[3-(6,7,8,9-tetrahydro-3H-pyrazolo[3,4-c][2,7]naphthyridin-1-yl)phenyl]acetamide] | 50 to 74 | 75 to 100 | 25 to 49 | – | –
24 | – | c1ccc(CNC2CCc3c(cnc4[nH]ncc34)C2)cc1 (centres unmarked) [N-benzyl-6,7,8,9-tetrahydro-3H-pyrazolo[3,4-c]isoquinolin-7-amine] | < 24 | – | < 24 | – | < 24
25 | – | c1ccc(C2Cc3cnc4[nH]ncc4c3-c3ccccc32)cc1 (centres unmarked) [drawing 555, 7-phenyl-6,7-dihydro-3H-benzo[f]pyrazolo[3,4-c]isoquinoline] | 25 to 49 | 25 to 49 | < 24 | – | < 24
26 | – | Clc1ccc(C2Cc3cnc4[nH]ncc4c3-c3ccccc32)c(Cl)c1 (centres unmarked) [drawing 557, 7-(2,4-dichlorophenyl)-6,7-dihydro-3H-benzo[f]pyrazolo[3,4-c]isoquinoline] | 50 to 74 | 50 to 74 | – | 25 to 49 | < 24
27 | – | O=C(Nc1ccccc1)NC1CCc2c(cnc3[nH]ncc23)C1 (centres unmarked) [drawing 560, 1-phenyl-3-(6,7,8,9-tetrahydro-3H-pyrazolo[3,4-c]isoquinolin-7-yl)urea] | < 24 | – | – | – | < 24
28 | – | Cc1cc(C)c2c(c1)-c1c(cnc3[nH]ncc13)CC2 [drawing 561, 8,10-dimethyl-6,7-dihydro-3H-benzo[f]pyrazolo[3,4-c]isoquinoline] | 75 to 100 | 25 to 49 | 25 to 49 | – | < 24
29 | – | COc1ccc2c(c1)-c1c(cnc3[nH]ncc13)CC2 [drawing 562, 10-methoxy-6,7-dihydro-3H-benzo[f]pyrazolo[3,4-c]isoquinoline] | < 24 | 25 to 49 | – | – | < 24
30 | – | Cc1nc(-c2cccc(NC(=O)N3CCc4c(cnc5[nH]nc(Br)c45)C3)c2)no1 [drawing 581, 1-bromo-N-[3-(5-methyl-1,2,4-oxadiazol-3-yl)phenyl]-3,6,8,9-tetrahydro-7H-pyrazolo[3,4-c][2,7]naphthyridine-7-carboxamide] | – | < 24 | – | – | < 24
31 | – | O=C(Nc1ccccc1)C1CCc2c(cnc3[nH]ncc23)C1 (centres unmarked) [drawing 584, N-phenyl-6,7,8,9-tetrahydro-3H-pyrazolo[3,4-c]isoquinoline-7-carboxamide] | 50 to 74 | 75 to 100 | < 24 | – | < 24
